Read-outs that look alike come from different tables or passages of the source.
Assays:
Type in all cases: in vivo
[1] = test system: Spodoptera littoralis (Egyptian cotton leaf worm); test: Spodoptera littoralis (Egyptian cotton leaf worm): Feeding/contact activity; conditions: foliar, 72 h, read-out: control (mortality)
Procedure: Spodoptera littoralis (Egyptian cotton leaf worm): Feeding/contact activity Cotton leaf discs were placed onto agar in 24-well microtiter plates and sprayed with aqueous test solutions prepared from 10,000 ppm DMSO stock solutions. After drying the leaf discs were infested with five L1 larvae. The samples were assessed for mortality 3 days after infestation.

[2] = test system: Myzus persicae (Green peach aphid); test: Myzus persicae (Green peach aphid): Feeding/Contact activity; conditions: foliar, 144 h, read-out: control (mortality)
Procedure: Myzus persicae (Green peach aphid): Feeding/Contact activity Sunflower leaf discs were placed onto agar in a 24-well microtiter plate and sprayed with aqueous test solutions prepared from 10,000 ppm DMSO stock solutions. After drying, the leaf discs were infested with an aphid population of mixed ages. The samples were assessed for mortality 6 days after infestation.

[3] = test system: Diabrotica balteata (Corn root worm); test: Diabrotica balteata (Corn root worm), maize sprouts sprayed, L2 larvae mortality; conditions: 96 h, application rate of 200 ppm, L2 larvae on maize sprouts, assessed 4 days after infestation, read-out: control (mortality)
Procedure: Diabrotica balteata (Corn root worm):
Maize sprouts placed onto an agar layer in 24-well microtiter plates were treated with aqueous test solutions prepared from 10,000 ppm DMSO stock solutions by spraying. After drying, the plates were infested with L2 larvae (6 to 10 per well). The samples were assessed for mortality 4 days after infestation.

[4] = test system: Tetranychus urticae (Two-spotted spider mite); test: Tetranychus urticae (Two-spotted spider mite): Feeding/contact activity; conditions: foliar, 192 h, read-out: control (mortality)
Procedure: Tetranychus urticae (Two-spotted spider mite): Feeding/contact activity
Bean leaf discs on agar in 24-well microtiter plates were sprayed with aqueous test solutions prepared from 10,000 ppm DMSO stock solutions. After drying the leaf discs were infested with a mite population of mixed ages. The samples were assessed for mortality on mixed population (mobile stages) 8 days after infestation.

[5] = test system: Euschistus heros (Neotropical Brown Stink Bug); test: Euschistus heros (Neotropical Brown Stink Bug): Feeding/contact activity; conditions: 120 h, read-out: control (mortality)
Procedure: Euschistus heros (Neotropical Brown Stink Bug): Feeding/contact activity Soybean leaves on agar in 24-well microtiter plates were sprayed with aqueous test solutions prepared from 10,000 ppm DMSO stock solutions. After drying the leaves were infested with N2 nymphs. The samples were assessed for mortality 5 days after infestation.

[6] = test system: Plutella xylostella (Diamond back moth); test: Plutella xylostella (Diamond back moth): Feeding/contact activity; conditions: 120 h, application rate of 200 ppm, L2 larvae on artificial diet, assessed 5 days after infestation, read-out: control (mortality)
Procedure: Plutella xylostella (Diamond back moth): Feeding/contact activity
24-well microtiter plates with artificial diet were treated with aqueous test solutions prepared from 10,000 ppm DMSO stock solutions by pipetting. After drying, the plates were infested with L2 larvae (10 to 15 per well). The samples were assessed for mortality 5 days after infestation.

[7] = application rate of 200 ppm, L1 larvae on cotton leaf discs, assessed 3 days after infestation
[8] = application rate of 200 ppm, aphid population of mixed ages on sunflower leaf discs, assessed 6 days after infestation
[9] = application rate of 200 ppm, mite population of mixed ages (mobile stages) on bean leaf discs, assessed 8 days after infestation
[10] = application rate of 200 ppm, N2 nymphs on soybean leaves, assessed 5 days after infestation

Measured: mortality at 200 ppm

Cn1c(SC(F)(F)F)cc(Cl)c1-n1cc(-c2ccc(Cl)c(C(=O)NC3(C#N)CC3)c2)cn1 [Compound 32, 2-chloro-5-[1-[3-chloro-1-methyl-5-(trifluoromethylsulfanyl)pyrrol-2-yl]pyrazol-4-yl]-N-(1-cyanocyclopropyl)benzamide]
≥ 80%: [1]; [7] | [2]; [8] | [3] | [4]; [9] | [5]; [10]

COCn1c(C(F)(C(F)(F)F)C(F)(F)F)cc(Br)c1-n1cc(-c2ccc(Cl)c(C(=O)NC3(C#N)CC3)c2)cn1 [Compound 14, 5-[1-[3-bromo-1-(methoxymethyl)-5-[1,2,2,2-tetrafluoro-1-(trifluoromethyl)ethyl]pyrrol-2-yl]pyrazol-4-yl]-2-chloro-N-(1-cyanocyclopropyl)benzamide]
≥ 80%: [1]; [7] | [2]; [8] | [3] | [6] | [4]; [9] | [5]; [10]

CN(C(=O)c1cc(-c2cnn(-c3c(Br)cc(C(F)(C(F)(F)F)C(F)(F)F)n3C)c2)ccc1Cl)C1CC1 [Compound 4, 5-[1-[3-bromo-1-methyl-5-[1,2,2,2-tetrafluoro-1-(trifluoromethyl)ethyl]pyrrol-2-yl]pyrazol-4-yl]-2-chloro-N-cyclopropyl-N-methyl-benzamide]
≥ 80%: [1]; [7] | [2]; [8] | [3] | [6] | [4]; [9] | [5]; [10]

CC(=O)N(C(=O)c1cc(-c2cnn(-c3ccc(C(F)(C(F)(F)F)C(F)(F)F)n3C3CC3)c2)ccc1Cl)C(C)(C)C#N [Compound 35, N-acetyl-2-chloro-N-(1-cyano-1-methyl-ethyl)-5-[1-[1-cyclopropyl-5-[1,2,2,2-tetrafluoro-1-(trifluoromethyl)ethyl]pyrrol-2-yl]pyrazol-4-yl]benzamide]
≥ 80%: [1]; [7] | [2]; [8] | [4]; [9] | [5]; [10]

N#CCn1c(C(F)(C(F)(F)F)C(F)(F)F)cc(Br)c1-n1cc(-c2ccc(Cl)c(C(=O)NC3(C#N)CC3)c2)cn1 [Compound 13, 5-[1-[3-bromo-1-(cyanomethyl)-5-[1,2,2,2-tetrafluoro-1-(trifluoromethyl)ethyl]pyrrol-2-yl]pyrazol-4-yl]-2-chloro-N-(1-cyanocyclopropyl)benzamide]
≥ 80%: [1]; [7] | [3] | [6] | [4]; [9] | [5]; [10]

CC(=O)N(C(=O)c1cc(-c2cnn(-c3ccc(C(F)(C(F)(F)F)C(F)(F)F)n3C3CC3)c2)ccc1Cl)C1(C#N)CC1 [Compound 36, N-acetyl-2-chloro-N-(1-cyanocyclopropyl)-5-[1-[1-cyclopropyl-5-[1,2,2,2-tetrafluoro-1-(trifluoromethyl)ethyl]pyrrol-2-yl]pyrazol-4-yl]benzamide]
≥ 80%: [1]; [7] | [2]; [8] | [6] | [4]; [9] | [5]; [10]

COC(=O)N(C(=O)c1cc(-c2cnn(-c3ccc(C(F)(C(F)(F)F)C(F)(F)F)n3C3CC3)c2)ccc1Cl)C1(C#N)CC1 [Compound 39, methyl N-[2-chloro-5-[1-[1-cyclopropyl-5-[1,2,2,2-tetrafluoro-1-(trifluoromethyl)ethyl]pyrrol-2-yl]pyrazol-4-yl]benzoyl]-N-(1-cyanocyclopropyl)carbamate]
≥ 80%: [1] | [2] | [4] | [5]; in Glycine max

CN(C(=O)c1cc(-c2cnn(-c3ccc(C(F)(C(F)(F)F)C(F)(F)F)n3C3CC3)c2)ccc1Cl)C1(C#N)CC1 [Compound 38, 2-chloro-N-(1-cyanocyclopropyl)-5-[1-[1-cyclopropyl-5-[1,2,2,2-tetrafluoro-1-(trifluoromethyl)ethyl]pyrrol-2-yl]pyrazol-4-yl]-N-methyl-benzamide]
≥ 80%: [1]; [7] | [2]; [8] | [6] | [4]; [9] | [5]; [10]

Cn1c(C(F)(C(F)(F)F)C(F)(F)F)cc([N+](=O)[O-])c1-n1cc(-c2ccc(Cl)c(C(=O)NC3(C#N)CC3)c2)cn1 [Compound 7, 2-chloro-N-(1-cyanocyclopropyl)-5-[1-[1-methyl-3-nitro-5-[1,2,2,2-tetrafluoro-1-(trifluoromethyl)ethyl]pyrrol-2-yl]pyrazol-4-yl]benzamide]
≥ 80%: [1]; [7]

N#CC1(NC(=O)c2cc(-c3cnn(-c4ccc(C(F)(C(F)(F)F)C(F)(F)F)n4C4CC4)c3)ccc2Cl)CC1 [Compound 40, 2-chloro-N-(1-cyanocyclopropyl)-5-[1-[1-cyclopropyl-5-[1,2,2,2-tetrafluoro-1-(trifluoromethyl)ethyl]pyrrol-2-yl]pyrazol-4-yl]benzamide]
≥ 80%: [1]; [7] | [6] | [4]; [9] | [5]; [10]

Cn1c(C(F)(C(F)(F)F)C(F)(F)F)cc(Br)c1-n1cc(-c2ccc(Cl)c(C(=O)NC3CC3)c2)cn1 [Compound 3, 5-[1-[3-bromo-1-methyl-5-[1,2,2,2-tetrafluoro-1-(trifluoromethyl)ethyl]pyrrol-2-yl]pyrazol-4-yl]-2-chloro-N-cyclopropyl-benzamide]
≥ 80%: [1]; [7] | [3] | [6] | [4]; [9] | [5]; [10]

Cn1c(-c2cc(-c3ccc(Cl)c(C(=O)NC4(C#N)CC4)c3)on2)ccc1C(F)(C(F)(F)F)C(F)(F)F [Compound 5, 2-chloro-N-(1-cyanocyclopropyl)-5-[3-[1-methyl-5-[1,2,2,2-tetrafluoro-1-(trifluoromethyl)ethyl]pyrrol-2-yl]isoxazol-5-yl]benzamide]
≥ 80%: [1]; [7] | [3] | [6] | [4]; [9] | [5]; [10]

Cn1c(Br)c(Br)c(Br)c1-n1cc(-c2ccc(Cl)c(C(=O)NC3(C#N)CC3)c2)cn1 [Compound 15, 2-chloro-N-(1-cyanocyclopropyl)-5-[1-(3,4,5-tribromo-1-methyl-pyrrol-2-yl)pyrazol-4-yl]benzamide]
≥ 80%: [1]; [7] | [3] | [6]

Cn1c(C(F)(F)C(F)(F)F)cc(Br)c1-n1cc(-c2ccc(Cl)c(C(=O)NC3(C#N)CC3)c2)cn1 [Compound 31, 5-[1-[3-bromo-1-methyl-5-(1,1,2,2,2-pentafluoroethyl)pyrrol-2-yl]pyrazol-4-yl]-2-chloro-N-(1-cyanocyclopropyl)benzamide]
≥ 80%: [2]; [8] | [3] | [4]; [9] | [5]; [10]

N#CC1(NC(=O)c2cc(-c3cnn(-c4c(Br)c(Br)c(SC(F)(F)F)n4C4CC4)c3)ccc2Cl)CC1 [Compound 41, 2-chloro-N-(1-cyanocyclopropyl)-5-[1-[3,4-dibromo-1-cyclopropyl-5-(trifluoromethylsulfanyl)pyrrol-2-yl]pyrazol-4-yl]benzamide]
≥ 80%: [1]; [7] | [3] | [6] | [4]; [9] | [5]; [10]

CC(C)(C#N)NC(=O)c1cc(-c2cnn(-c3ccc(C(F)(C(F)(F)F)C(F)(F)F)n3C3CC3)c2)ccc1Cl [Compound 37, 2-chloro-N-(1-cyano-1-methyl-ethyl)-5-[1-[1-cyclopropyl-5-[1,2,2,2-tetrafluoro-1-(trifluoromethyl)ethyl]pyrrol-2-yl]pyrazol-4-yl]benzamide]
≥ 80%: [1]; [7] | [2]; [8] | [6] | [4]; [9] | [5]; [10]

— patent US11459318B2, “Pesticidally active pyrrole derivatives” (Syngenta Participations AG, priority 2017, dated 2022)
